Source: patent US20220409619A1, “INHIBITORS OF HUMAN IMMUNODEFICIENCY VIRUS REPLICATION” (VIIV HEALTHCARE UK (No. 5) LIMITED, priority 2019, published 2022)

Key:
[1] = Compound cytotoxicity, XTT-based colorimetric assay; format: cell-based; details: human; uninfected MT2 cells, day 4, XTT-based colorimetric assay
Protocol: Compound cytotoxicity and the corresponding CC50 values were determined using the same protocol as described in the antiviral assay except that uninfected cells were used. Cytotoxicity was assessed on day 4 in uninfected MT2 cells by using a XTT (2,3-bis[2-Methoxy-4-nitro-5-sulfophenyl]-2H-tetrazolium-5-carboxyanilide inner salt)-based colorimetric assay (Sigma-Aldrich, St Louis, Mo.).

[2] = system: recombinant NL4-3 virus (nef section replaced with Renilla luciferase gene) in MT-2 cells; test: HIV cell culture assay (antiviral activity, luciferase readout); format: cell-based; details: Renilla, NL43
Protocol: HIV cell culture assay—MT-2 cells, 293T cells and the proviral DNA clone of NL4-3 virus were obtained from the NIH AIDS Research and Reference Reagent Program. MT-2 cells were propagated in RPMI 1640 media supplemented with 10% heat inactivated fetal bovine serum (FBS), 100 μg/ml penicillin G and up to 100 units/mL streptomycin. The 293T cells were propagated in DMEM media supplemented with 10% heat inactivated FBS, 100 μg/mL penicillin G and 100 μg/mL streptomycin. A recombinant NL4-3 proviral clone, in which a section of the nef gene was replaced with the Renilla luciferase gene, was used to make the reference virus used in these studies. The recombinant virus was prepared through transfection of the recombinant NL4-3 proviral clone into 293T cells using Transit-293 Transfection Reagent from Mirus Bio LLC (Madison, Wis.). Supernatent was harvested after 2-3 days and the amount of virus present was titered in MT-2 cells using luciferase enzyme activity as a marker by measuring luciferase enzyme activity. Luciferase was quantitated using the EnduRen Live Cell Substrate from Promega (Madison, Wis.). Antiviral activities of compounds toward the recombinant virus were quantified by measuring luciferase activity in MT-2 cells infected for 4-5 days with the recombinant virus in the presence of serial dilutions of the compound.
The 50% effective concentration (EC50) was calculated by using the exponential form of the median effect equation where (Fa)=1/[1+(ED50/drug conc.)^m] (Johnson V A, Byington R T. Infectivity Assay. In Techniques in HIV Research. ed. Aldovini A, Walker B D. 71-76. New York: Stockton Press. 1990). Curve fitting and analysis were performed with ActivityBase XE Runner software version 9.1.0.4 using model 203 (ID Business Solutions, LTD, Guildford, UK).

| Compound | CC50 at 4 days [1] | EC50 [2] |
| --- | --- | --- |
| Cn1nc(NS(C)(=O)=O)c2c(Cl)ccc(-n3c([C@H](Cc4cc(F)cc(F)c4)NC(=O)Cn4nc(C(F)F)c5c4C(F)(F)[C@@H]4C[C@H]54)nc(-c4nccc(C(F)(F)F)n4)cc3=O)c21 (atropisomer, axis not shown; (aR)) [Example 6, N-((S)-1-((1′P)-1′-(4-chloro-1-methyl-3-(methylsulfonamido)-1H-indazol-7-yl)-6′-oxo-4-(trifluoromethyl)-1′,6′-dihydro-[2,4′-bipyrimidin]-2′-yl)-2-(3,5-difluorophenyl)ethyl)-2-((3bS,4aR)-3-(difluoromethyl)-5,5-difluoro-3b,4,4a,5-tetrahydro-1H-cyclopropa[3,4]cyclopenta[1,2-c]pyrazol-1-yl)acetamide] | > 100 nM | 0.054 nM |
| COC(C)(C)C#Cc1cc(=O)n(-c2ccc(Cl)c3c(NS(C)(=O)=O)nn(C)c23)c([C@H](Cc2cc(F)cc(F)c2)NC(=O)Cn2nc(C(F)F)c3c2C(F)(F)[C@@H]2C[C@H]32)n1 (atropisomer, axis not shown; (P)) [Example 9, N-((S)-1-((1P)-1-(4-chloro-1-methyl-3-(methylsulfonamido)-1H-indazol-7-yl)-4-(3-methoxy-3-methylbut-1-yn-1-yl)-6-oxo-1,6-dihydropyrimidin-2-yl)-2-(3,5-difluorophenyl)ethyl)-2-((3bS,4aR)-3-(difluoromethyl)-5,5-difluoro-3b,4,4a,5-tetrahydro-1H-cyclopropa[3,4]cyclopenta[1,2-c]pyrazol-1-yl)acetamide] | > 100 nM | 0.04 nM |
| O=C(Cn1nc(C(F)F)c2c1C(F)(F)[C@@H]1C[C@H]21)N[C@@H](Cc1cc(F)cc(F)c1)c1nc(-c2cccc(C(F)(F)F)n2)cc(=O)n1-c1ccc(Cl)c2c(NS(=O)(=O)C3CC3)nn(CC(F)F)c12 (atropisomer, axis not shown; (P)) [Example 44, N-((S)-1-((1P)-1-(4-chloro-3-(cyclopropanesulfonamido)-1-(2,2-difluoroethyl)-1H-indazol-7-yl)-6-oxo-4-(6-(trifluoromethyl)pyridin-2-yl)-1,6-dihydropyrimidin-2-yl)-2-(3,5-difluorophenyl)ethyl)-2-((3bS,4aR)-3-(difluoromethyl)-5,5-difluoro-3b,4,4a,5-tetrahydro-1H-cyclopropa[3,4]cyclopenta[1,2-c]pyrazol-1-yl)acetamide] | > 100 nM | 0.24 nM |
| CCOc1cnc(-c2cc(=O)n(-c3ccc(Cl)c4c(NS(C)(=O)=O)nn(C)c34)c([C@H](Cc3cc(F)cc(F)c3)NC(=O)Cn3nc(C(F)F)c4c3C(F)(F)[C@@H]3C[C@H]43)n2)nc1 (atropisomer, axis not shown; (aR)) [Example 14, N-((S)-1-((1′P)-1′-(4-chloro-1-methyl-3-(methylsulfonamido)-1H-indazol-7-yl)-5-ethoxy-6′-oxo-1′,6′-dihydro-[2,4′-bipyrimidin]-2′-yl)-2-(3,5-difluorophenyl)ethyl)-2-((3bS,4aR)-3-(difluoromethyl)-5,5-difluoro-3b,4,4a,5-tetrahydro-1H-cyclopropa[3,4]cyclopenta[1,2-c]pyrazol-1-yl)acetamide] | > 100 nM | 0.042 nM |
| O=C(Cn1nc(C(F)F)c2c1C(F)(F)[C@@H]1C[C@H]21)N[C@@H](Cc1cc(F)cc(F)c1)c1nc(-c2ncc(F)cn2)cc(=O)n1-c1ccc(Cl)c2c(NS(=O)(=O)C3CC3)nn(CC(F)F)c12 (atropisomer, axis not shown; (aR)) [Example 30, N-((S)-1-((1′P)-1′-(4-chloro-3-(cyclopropanesulfonamido)-1-(2,2-difluoroethyl)-1H-indazol-7-yl)-5-fluoro-6′-oxo-1′,6′-dihydro-[2,4′-bipyrimidin]-2′-yl)-2-(3,5-difluorophenyl)ethyl)-2-((3bS,4aR)-3-(difluoromethyl)-5,5-difluoro-3b,4,4a,5-tetrahydro-1H-cyclopropa[3,4]cyclopenta[1,2-c]pyrazol-1-yl)acetamide] | > 100 nM | 0.2 nM |
| Cn1nc(NS(C)(=O)=O)c2c(Cl)ccc(-n3c([C@H](Cc4cc(F)cc(F)c4)NC(=O)Cn4nc(C(F)F)c5c4C(F)(F)[C@@H]4C[C@H]54)nc(-c4cccc(F)n4)cc3=O)c21 (atropisomer, axis not shown; (P)) [Example 23, N-((S)-1-((1P)-1-(4-chloro-1-methyl-3-(methylsulfonamido)-1H-indazol-7-yl)-4-(6-fluoropyridin-2-yl)-6-oxo-1,6-dihydropyrimidin-2-yl)-2-(3,5-difluorophenyl)ethyl)-2-((3bS,4aR)-3-(difluoromethyl)-5,5-difluoro-3b,4,4a,5-tetrahydro-1H-cyclopropa[3,4]cyclopenta[1,2-c]pyrazol-1-yl)acetamide] | > 100 nM | 0.42 nM |
| Cn1nc(NS(C)(=O)=O)c2c(Cl)ccc(-n3c([C@H](Cc4cc(F)cc(F)c4)NC(=O)Cn4nc(C(F)F)c5c4C(F)(F)[C@@H]4C[C@H]54)nc(-c4cccc(C(F)(F)F)n4)cc3=O)c21 (atropisomer, axis not shown; (P)) [Example 7, N-((S)-1-((1P)-1-(4-chloro-1-methyl-3-(methylsulfonamido)-1H-indazol-7-yl)-6-oxo-4-(6-(trifluoromethyl)pyridin-2-yl)-1,6-dihydropyrimidin-2-yl)-2-(3,5-difluorophenyl)ethyl)-2-((3bS,4aR)-3-(difluoromethyl)-5,5-difluoro-3b,4,4a,5-tetrahydro-1H-cyclopropa[3,4]cyclopenta[1,2-c]pyrazol-1-yl)acetamide] | > 100 nM | 0.53 nM |
| CC(C)(C#Cc1cc(=O)n(-c2ccc(Cl)c3c(NS(=O)(=O)C4CC4)nn(CC(F)F)c23)c([C@H](Cc2cc(F)cc(F)c2)NC(=O)Cn2nc(C(F)(F)F)c3c2C(F)(F)[C@@H]2C[C@H]32)n1)S(C)(=O)=O (atropisomer, axis not shown; (P)) [Example 36, N-((S)-1-((1P)-1-(4-chloro-3-(cyclopropanesulfonamido)-1-(2,2-difluoroethyl)-1H-indazol-7-yl)-4-(3-methyl-3-(methylsulfonyl)but-1-yn-1-yl)-6-oxo-1,6-dihydropyrimidin-2-yl)-2-(3,5-difluorophenyl)ethyl)-2-((3bS,4aR)-5,5-difluoro-3-(trifluoromethyl)-3b,4,4a,5-tetrahydro-1H-cyclopropa[3,4]cyclopenta[1,2-c]pyrazol-1-yl)acetamide] | > 100 nM | 0.16 nM |
| CCOc1ncc(-c2cc(=O)n(-c3ccc(Cl)c4c(NS(=O)(=O)C5CC5)nn(CC(F)F)c34)c([C@H](Cc3cc(F)cc(F)c3)NC(=O)Cn3nc(C(F)F)c4c3C(F)(F)[C@@H]3C[C@H]43)n2)cn1 (atropisomer, axis not shown; (P)) [Example 49, N-((S)-1-((1P)-1-(4-chloro-3-(cyclopropanesulfonamido)-1-(2,2-difluoroethyl)-1H-indazol-7-yl)-2′-ethoxy-6-oxo-1,6-dihydro-[4,5′-bipyrimidin]-2-yl)-2-(3,5-difluorophenyl)ethyl)-2-((3bS,4aR)-3-(difluoromethyl)-5,5-difluoro-3b,4,4a,5-tetrahydro-1H-cyclopropa[3,4]cyclopenta[1,2-c]pyrazol-1-yl)acetamide] | > 100 nM | 0.58 nM |
| COc1ccnc(-c2cc(=O)n(-c3ccc(Cl)c4c(NS(=O)(=O)C5CC5)nn(CC(F)F)c34)c([C@H](Cc3cc(F)cc(F)c3)NC(=O)Cn3nc(C(F)F)c4c3C(F)(F)[C@@H]3C[C@H]43)n2)n1 (atropisomer, axis not shown; (aR)) [Example 33, N-((S)-1-((1′P)-1′-(4-chloro-3-(cyclopropanesulfonamido)-1-(2,2-difluoroethyl)-1H-indazol-7-yl)-4-methoxy-6′-oxo-1′,6′-dihydro-[2,4′-bipyrimidin]-2′-yl)-2-(3,5-difluorophenyl)ethyl)-2-((3bS,4aR)-3-(difluoromethyl)-5,5-difluoro-3b,4,4a,5-tetrahydro-1H-cyclopropa[3,4]cyclopenta[1,2-c]pyrazol-1-yl)acetamide] | > 100 nM | 0.13 nM |
| Cn1nc(NS(C)(=O)=O)c2c(Cl)ccc(-n3c([C@H](Cc4cc(F)cc(F)c4)NC(=O)Cn4nc(C(F)F)c5c4C(F)(F)[C@@H]4C[C@H]54)nc(-c4nccc(C(F)F)n4)cc3=O)c21 (atropisomer, axis not shown; (aR)) [Example 5, N-((S)-1-((1′P)-1′-(4-chloro-1-methyl-3-(methylsulfonamido)-1H-indazol-7-yl)-4-(difluoromethyl)-6′-oxo-1′,6′-dihydro-[2,4′-bipyrimidin]-2′-yl)-2-(3,5-difluorophenyl)ethyl)-2-((3bS,4aR)-3-(difluoromethyl)-5,5-difluoro-3b,4,4a,5-tetrahydro-1H-cyclopropa[3,4]cyclopenta[1,2-c]pyrazol-1-yl)acetamide] | > 100 nM | 0.054 nM |
